Results taken from article PMC9030254, “Target Hopping from Protein Kinases to PXR: Identification of Small-Molecule Protein Kinase Inhibitors as Selective Modulators of Pregnane X Receptor from TüKIC Library” (Cells, 2022).

Experiments:
Assay in all cases: Kinase profiling
Format in all cases: biochemical
ACK1 = molecular target: T1, ACK1 (Homo sapiens, UniProt Q07912)
T1 construct: purchased ProQinase (Freiburg, Germany)
Method: (§1) The analysis was performed by ProQinase (Freiburg, Germany).

TTK = molecular target: T2, TTK (Homo sapiens, UniProt P33981)
T2 construct: purchased ProQinase (Freiburg, Germany)
T2 sequence (P33981 1-857): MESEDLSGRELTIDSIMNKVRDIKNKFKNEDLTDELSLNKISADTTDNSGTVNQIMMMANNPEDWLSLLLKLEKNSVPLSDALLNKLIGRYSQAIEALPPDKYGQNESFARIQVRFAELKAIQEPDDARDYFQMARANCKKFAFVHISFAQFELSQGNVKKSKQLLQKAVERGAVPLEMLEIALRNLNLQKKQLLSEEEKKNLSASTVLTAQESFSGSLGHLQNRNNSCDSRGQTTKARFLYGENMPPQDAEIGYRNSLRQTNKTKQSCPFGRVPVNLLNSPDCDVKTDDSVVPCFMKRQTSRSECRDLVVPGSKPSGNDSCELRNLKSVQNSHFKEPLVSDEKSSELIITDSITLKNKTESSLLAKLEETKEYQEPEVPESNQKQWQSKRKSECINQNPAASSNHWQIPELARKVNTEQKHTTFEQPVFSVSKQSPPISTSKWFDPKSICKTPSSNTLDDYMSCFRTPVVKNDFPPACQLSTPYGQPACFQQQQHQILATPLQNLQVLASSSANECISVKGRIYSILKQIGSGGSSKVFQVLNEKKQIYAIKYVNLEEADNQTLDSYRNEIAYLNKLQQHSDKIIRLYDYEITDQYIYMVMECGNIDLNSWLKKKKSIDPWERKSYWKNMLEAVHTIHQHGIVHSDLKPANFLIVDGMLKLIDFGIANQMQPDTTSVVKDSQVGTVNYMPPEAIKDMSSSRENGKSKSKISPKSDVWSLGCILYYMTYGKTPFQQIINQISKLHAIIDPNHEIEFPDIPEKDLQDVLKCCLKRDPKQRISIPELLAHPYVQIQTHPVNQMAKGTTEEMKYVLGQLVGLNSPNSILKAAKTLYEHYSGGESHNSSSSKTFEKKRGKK
Method: as §1

GRK3 = molecular target: T3, GRK3 (Homo sapiens, UniProt P35626)
T3 construct: purchased ProQinase (Freiburg, Germany)
T3 sequence (P35626 1-688): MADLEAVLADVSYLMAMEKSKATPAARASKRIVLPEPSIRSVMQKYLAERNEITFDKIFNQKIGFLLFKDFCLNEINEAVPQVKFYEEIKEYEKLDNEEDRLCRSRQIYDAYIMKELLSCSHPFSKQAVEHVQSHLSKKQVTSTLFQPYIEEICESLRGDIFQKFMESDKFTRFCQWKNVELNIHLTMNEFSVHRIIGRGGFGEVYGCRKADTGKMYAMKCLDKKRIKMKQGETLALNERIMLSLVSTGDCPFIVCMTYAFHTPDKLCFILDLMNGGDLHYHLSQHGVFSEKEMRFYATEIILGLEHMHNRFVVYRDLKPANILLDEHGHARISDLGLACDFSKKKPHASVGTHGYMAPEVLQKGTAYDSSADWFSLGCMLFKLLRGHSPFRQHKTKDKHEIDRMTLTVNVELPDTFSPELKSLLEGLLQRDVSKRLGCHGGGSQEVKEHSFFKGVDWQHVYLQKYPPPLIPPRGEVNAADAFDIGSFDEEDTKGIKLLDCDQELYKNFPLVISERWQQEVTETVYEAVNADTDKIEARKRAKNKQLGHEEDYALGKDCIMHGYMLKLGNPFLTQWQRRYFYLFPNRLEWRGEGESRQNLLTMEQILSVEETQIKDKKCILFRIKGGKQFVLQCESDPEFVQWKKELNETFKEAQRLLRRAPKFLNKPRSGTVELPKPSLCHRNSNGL
Method: as §1

TNK1 = molecular target: T4, TNK1 (Homo sapiens, UniProt Q13470)
T4 construct: purchased ProQinase (Freiburg, Germany)
T4 sequence (Q13470 1-666): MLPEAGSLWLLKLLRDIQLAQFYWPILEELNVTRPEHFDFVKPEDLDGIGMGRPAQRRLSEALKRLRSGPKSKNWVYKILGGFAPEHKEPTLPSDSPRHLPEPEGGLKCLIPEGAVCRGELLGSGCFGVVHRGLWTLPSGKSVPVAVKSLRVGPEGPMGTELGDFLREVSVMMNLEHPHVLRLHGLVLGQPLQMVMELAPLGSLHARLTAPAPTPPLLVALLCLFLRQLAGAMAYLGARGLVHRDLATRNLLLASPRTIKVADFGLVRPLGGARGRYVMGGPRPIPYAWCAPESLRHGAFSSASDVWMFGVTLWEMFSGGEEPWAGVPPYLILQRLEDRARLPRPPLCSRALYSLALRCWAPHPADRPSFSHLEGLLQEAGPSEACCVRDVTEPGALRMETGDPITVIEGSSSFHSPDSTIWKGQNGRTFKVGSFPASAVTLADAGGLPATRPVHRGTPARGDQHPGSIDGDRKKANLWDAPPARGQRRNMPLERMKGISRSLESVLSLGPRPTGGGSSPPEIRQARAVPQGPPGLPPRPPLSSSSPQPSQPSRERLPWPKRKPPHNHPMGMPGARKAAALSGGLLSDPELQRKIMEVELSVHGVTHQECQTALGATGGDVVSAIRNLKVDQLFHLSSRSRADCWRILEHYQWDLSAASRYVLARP
Method: as §1

HIPK2 = molecular target: T5, HIPK2 (Homo sapiens, UniProt Q9H2X6)
T5 construct: purchased ProQinase (Freiburg, Germany)
T5 sequence (Q9H2X6 whole entry): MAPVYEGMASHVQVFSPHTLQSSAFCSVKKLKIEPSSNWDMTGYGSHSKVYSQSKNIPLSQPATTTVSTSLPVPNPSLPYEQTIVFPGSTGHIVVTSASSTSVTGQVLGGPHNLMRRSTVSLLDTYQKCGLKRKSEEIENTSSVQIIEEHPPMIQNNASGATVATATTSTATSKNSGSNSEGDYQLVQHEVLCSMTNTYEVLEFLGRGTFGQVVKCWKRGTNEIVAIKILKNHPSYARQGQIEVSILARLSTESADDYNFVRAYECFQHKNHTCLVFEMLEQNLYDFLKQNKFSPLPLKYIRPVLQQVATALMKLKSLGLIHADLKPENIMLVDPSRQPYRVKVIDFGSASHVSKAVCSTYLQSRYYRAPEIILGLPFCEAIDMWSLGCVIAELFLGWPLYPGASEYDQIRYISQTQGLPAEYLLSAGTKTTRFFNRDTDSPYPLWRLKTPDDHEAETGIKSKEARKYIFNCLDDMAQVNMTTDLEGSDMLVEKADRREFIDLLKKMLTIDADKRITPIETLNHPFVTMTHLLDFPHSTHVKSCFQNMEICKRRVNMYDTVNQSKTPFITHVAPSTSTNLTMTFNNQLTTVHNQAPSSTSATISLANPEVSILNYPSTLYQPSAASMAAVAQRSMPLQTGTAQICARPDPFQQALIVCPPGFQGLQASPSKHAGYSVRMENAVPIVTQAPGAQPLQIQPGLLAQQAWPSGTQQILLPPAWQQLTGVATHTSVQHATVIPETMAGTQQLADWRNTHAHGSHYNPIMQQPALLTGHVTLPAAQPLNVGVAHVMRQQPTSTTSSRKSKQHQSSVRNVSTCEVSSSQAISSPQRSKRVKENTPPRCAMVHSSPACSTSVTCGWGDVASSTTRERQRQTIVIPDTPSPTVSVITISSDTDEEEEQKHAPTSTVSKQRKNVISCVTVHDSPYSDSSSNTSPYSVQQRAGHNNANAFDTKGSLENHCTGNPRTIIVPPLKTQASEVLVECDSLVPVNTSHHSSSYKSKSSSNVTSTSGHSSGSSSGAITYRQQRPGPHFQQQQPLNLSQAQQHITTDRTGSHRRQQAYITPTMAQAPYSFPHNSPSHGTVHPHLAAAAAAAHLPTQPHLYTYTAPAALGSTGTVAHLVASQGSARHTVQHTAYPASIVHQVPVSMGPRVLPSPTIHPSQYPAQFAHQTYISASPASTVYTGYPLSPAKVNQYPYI
Method: as §1

MYLK = molecular target: T6, MYLK (Homo sapiens, UniProt Q15746)
T6 construct: purchased ProQinase (Freiburg, Germany)
T6 sequence (Q15746 whole entry): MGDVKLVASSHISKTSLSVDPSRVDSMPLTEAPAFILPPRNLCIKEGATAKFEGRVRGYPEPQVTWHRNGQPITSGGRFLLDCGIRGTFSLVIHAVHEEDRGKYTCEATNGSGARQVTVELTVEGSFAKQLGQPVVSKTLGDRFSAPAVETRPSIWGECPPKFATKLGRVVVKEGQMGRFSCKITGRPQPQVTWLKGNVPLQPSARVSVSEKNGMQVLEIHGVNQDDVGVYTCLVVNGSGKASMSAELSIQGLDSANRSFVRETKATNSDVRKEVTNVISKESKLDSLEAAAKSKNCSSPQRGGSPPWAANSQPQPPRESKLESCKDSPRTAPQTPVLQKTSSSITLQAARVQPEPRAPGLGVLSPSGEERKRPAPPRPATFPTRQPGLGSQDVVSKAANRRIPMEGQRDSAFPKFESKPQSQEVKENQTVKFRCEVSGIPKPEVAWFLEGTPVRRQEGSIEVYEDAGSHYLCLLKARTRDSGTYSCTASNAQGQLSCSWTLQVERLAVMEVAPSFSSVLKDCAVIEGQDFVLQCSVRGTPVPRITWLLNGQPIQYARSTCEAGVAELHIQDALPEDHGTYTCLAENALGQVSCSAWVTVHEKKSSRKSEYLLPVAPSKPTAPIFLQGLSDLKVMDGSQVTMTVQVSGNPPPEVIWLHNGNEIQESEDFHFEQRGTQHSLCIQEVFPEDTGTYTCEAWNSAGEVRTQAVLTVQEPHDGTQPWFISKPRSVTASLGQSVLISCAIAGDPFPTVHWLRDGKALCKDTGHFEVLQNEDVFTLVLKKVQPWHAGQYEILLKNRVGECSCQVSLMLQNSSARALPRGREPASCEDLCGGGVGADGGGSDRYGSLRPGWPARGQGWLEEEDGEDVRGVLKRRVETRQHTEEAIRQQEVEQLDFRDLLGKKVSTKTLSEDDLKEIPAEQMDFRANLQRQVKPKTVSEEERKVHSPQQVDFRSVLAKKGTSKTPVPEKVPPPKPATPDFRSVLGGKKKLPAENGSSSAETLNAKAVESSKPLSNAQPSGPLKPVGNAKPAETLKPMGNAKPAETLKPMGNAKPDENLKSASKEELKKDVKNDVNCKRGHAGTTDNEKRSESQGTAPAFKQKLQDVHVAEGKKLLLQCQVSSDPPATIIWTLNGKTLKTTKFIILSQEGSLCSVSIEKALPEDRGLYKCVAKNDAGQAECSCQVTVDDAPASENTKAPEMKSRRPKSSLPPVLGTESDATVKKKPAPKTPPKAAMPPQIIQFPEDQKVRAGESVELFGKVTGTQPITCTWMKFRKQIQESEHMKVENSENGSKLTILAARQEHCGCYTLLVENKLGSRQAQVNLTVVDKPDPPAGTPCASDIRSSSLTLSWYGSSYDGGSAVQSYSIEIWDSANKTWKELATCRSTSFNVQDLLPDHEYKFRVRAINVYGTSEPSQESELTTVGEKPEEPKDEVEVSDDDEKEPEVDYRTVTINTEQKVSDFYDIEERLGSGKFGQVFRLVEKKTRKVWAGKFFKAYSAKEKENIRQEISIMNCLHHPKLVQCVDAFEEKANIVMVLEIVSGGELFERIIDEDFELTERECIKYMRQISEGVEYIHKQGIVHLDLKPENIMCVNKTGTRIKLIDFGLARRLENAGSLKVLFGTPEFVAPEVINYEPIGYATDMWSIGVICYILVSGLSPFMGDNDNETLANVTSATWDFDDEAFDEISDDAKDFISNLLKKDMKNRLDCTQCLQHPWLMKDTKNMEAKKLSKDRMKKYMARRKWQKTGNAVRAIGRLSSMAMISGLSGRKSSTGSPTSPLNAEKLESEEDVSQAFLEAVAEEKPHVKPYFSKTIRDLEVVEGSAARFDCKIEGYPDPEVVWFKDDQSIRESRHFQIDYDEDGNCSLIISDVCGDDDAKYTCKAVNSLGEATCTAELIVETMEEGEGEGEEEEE
Method: as §1

NEK7 = molecular target: T7, NEK7 (Homo sapiens, UniProt Q8TDX7)
T7 construct: purchased ProQinase (Freiburg, Germany)
T7 sequence (Q8TDX7 whole entry): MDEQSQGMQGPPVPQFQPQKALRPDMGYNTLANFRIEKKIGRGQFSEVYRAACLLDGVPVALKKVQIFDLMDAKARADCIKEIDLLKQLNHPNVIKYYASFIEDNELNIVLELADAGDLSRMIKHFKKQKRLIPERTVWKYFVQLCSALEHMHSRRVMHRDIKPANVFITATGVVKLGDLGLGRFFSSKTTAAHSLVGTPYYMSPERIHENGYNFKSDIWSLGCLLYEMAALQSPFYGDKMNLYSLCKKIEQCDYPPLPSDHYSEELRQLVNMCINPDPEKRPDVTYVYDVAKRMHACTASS
Method: as §1

TGFBR2 = molecular target: T8, TGFBR2 (Homo sapiens, UniProt P37173)
T8 construct: purchased ProQinase (Freiburg, Germany)
T8 sequence (P37173 23-567): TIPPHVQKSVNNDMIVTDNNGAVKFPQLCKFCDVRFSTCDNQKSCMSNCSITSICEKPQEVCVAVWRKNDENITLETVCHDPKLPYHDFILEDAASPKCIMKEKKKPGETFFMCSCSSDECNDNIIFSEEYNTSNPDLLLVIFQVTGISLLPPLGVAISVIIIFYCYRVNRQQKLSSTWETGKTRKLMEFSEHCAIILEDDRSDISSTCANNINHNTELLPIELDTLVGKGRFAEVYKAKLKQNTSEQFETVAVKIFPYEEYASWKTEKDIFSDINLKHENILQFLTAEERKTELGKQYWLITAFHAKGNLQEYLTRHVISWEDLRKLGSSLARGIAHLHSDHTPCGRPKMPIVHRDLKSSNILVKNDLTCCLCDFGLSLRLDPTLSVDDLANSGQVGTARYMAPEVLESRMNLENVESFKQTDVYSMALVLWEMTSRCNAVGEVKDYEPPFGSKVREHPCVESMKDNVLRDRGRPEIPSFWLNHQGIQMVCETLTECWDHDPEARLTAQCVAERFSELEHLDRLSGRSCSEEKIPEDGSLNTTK
Method: as §1

T1 sequence (Q07912 whole entry): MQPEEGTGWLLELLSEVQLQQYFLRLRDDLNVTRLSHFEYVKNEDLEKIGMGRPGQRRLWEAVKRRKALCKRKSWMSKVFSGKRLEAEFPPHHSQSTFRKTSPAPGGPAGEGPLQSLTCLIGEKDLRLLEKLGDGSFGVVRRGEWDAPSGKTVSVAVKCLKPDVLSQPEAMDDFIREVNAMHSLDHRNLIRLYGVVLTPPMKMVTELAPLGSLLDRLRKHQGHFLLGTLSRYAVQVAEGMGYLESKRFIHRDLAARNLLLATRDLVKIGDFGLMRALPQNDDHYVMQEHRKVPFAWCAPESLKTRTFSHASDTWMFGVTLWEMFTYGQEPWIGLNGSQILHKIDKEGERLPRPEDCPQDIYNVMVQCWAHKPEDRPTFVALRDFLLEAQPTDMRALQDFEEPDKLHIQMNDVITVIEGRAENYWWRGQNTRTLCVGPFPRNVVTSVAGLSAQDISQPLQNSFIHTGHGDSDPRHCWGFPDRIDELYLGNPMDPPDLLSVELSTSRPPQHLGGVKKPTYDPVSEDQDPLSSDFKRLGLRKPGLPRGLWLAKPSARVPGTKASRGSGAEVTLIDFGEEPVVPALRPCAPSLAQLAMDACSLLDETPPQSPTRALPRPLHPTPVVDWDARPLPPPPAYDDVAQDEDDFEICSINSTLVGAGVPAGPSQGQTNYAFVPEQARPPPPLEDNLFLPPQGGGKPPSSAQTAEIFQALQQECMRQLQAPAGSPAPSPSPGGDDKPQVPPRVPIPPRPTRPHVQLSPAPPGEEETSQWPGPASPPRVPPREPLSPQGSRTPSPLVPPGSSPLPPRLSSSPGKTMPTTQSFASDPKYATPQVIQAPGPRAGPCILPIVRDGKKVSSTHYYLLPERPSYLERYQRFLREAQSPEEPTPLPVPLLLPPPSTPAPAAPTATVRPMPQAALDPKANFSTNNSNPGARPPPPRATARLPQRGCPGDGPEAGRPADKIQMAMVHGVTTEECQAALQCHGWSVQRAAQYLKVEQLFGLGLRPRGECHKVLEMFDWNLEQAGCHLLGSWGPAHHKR

| SMILES | Residual activity (ACK1; 1.0E-05 M) | Residual activity (ACK1; 1.0E-06 M) | Residual activity (TTK; 1.0E-05 M) | Residual activity (TTK; 1.0E-06 M) | Residual activity (GRK3; 1.0E-05 M) | Residual activity (GRK3; 1.0E-06 M) | Residual activity (TNK1; 1.0E-05 M) | Residual activity (TNK1; 1.0E-06 M) | Residual activity (HIPK2; 1.0E-05 M) | Residual activity (HIPK2; 1.0E-06 M) | Residual activity (MYLK; 1.0E-05 M) | Residual activity (MYLK; 1.0E-06 M) | Residual activity (NEK7; 1.0E-05 M) | Residual activity (NEK7; 1.0E-06 M) | Residual activity (TGFBR2; 1.0E-05 M) | Residual activity (TGFBR2; 1.0E-06 M) |
| --- | --- | --- | --- | --- | --- | --- | --- | --- | --- | --- | --- | --- | --- | --- | --- | --- |
| O=C(Cc1ccccc1)Nc1ccc(F)c(Nc2ccc3c(c2)CCCCC3=O)c1 [Compound 100] | 92 % of control | 112 % of control | 95 % of control | 99 % of control | 144 % of control | 118 % of control | 72 % of control | 101 % of control | 101 % of control | 97 % of control | 78 % of control | 92 % of control | 118 % of control | 109 % of control | 74 % of control | 79 % of control |
| O=C(Nc1ccc(F)c(Nc2ccc3c(c2)CCCCC3=O)c1)c1cccc(F)c1 [Compound 109] | 89 % of control | 96 % of control | 89 % of control | 91 % of control | 138 % of control | 122 % of control | 85 % of control | 89 % of control | 95 % of control | 90 % of control | 64 % of control | 81 % of control | 121 % of control | 108 % of control | 79 % of control | 82 % of control |
